Reference: patent US20250034216A1, “STEREOSELECTIVE COVALENT LIGANDS FOR ONCOGENIC AND IMMUNOLOGICAL PROTEINS” (The Scripps Research Institute, priority 2021, published 2025)

These compounds were tested against T1, LMF2_C659 (Homo sapiens, UniProt Q9BU23) (assay: IA-DTB cysteine engagement). Conditions: 22Rv1 cells, 20 μM probe, 1 h, relative to DMSO.
T1 construct: endogenous in cells; host or cells: 22Rv1
T1 sequence (Q9BU23 1-707): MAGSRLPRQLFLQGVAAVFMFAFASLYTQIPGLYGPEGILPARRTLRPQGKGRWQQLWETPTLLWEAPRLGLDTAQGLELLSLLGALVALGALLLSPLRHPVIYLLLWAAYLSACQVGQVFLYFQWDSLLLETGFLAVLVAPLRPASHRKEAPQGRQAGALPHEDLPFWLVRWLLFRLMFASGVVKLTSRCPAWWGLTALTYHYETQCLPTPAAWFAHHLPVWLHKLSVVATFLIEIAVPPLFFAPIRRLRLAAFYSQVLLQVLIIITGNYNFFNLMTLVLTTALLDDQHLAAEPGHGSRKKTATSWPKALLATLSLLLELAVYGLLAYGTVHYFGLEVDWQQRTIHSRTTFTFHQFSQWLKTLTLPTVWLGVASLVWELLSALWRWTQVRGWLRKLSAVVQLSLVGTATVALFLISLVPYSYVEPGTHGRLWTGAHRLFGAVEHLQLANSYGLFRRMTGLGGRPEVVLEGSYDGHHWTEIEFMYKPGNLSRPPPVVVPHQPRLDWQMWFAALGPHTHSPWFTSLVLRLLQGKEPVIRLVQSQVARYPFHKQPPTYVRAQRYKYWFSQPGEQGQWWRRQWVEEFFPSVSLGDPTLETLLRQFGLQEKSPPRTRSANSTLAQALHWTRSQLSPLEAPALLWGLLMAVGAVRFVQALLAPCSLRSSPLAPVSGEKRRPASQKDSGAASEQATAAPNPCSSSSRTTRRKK
Assay type: binding
Summary of the method: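 In-situ probe treatment of cells; lysate 2 mg/mL, IA-DTB 1 h RT; MeOH/CHCl3 precipitation, DTT/iodoacetamide, trypsin; streptavidin enrichment; TMT labeling, high-pH fractionation. Ratio = TMT reporter intensity / mean DMSO channels, median-normalized.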

Row | % engagement LMF2_C659 | Structure (SMILES)
1 | 66% | C=CC(=O)N1C[C@@H](c2ccc(Br)cc2)[C@H]1C(=O)Nc1cccc2cccnc12 [MY-1A, (2S,3R)-1-acryloyl-3-(4-bromophenyl)-N-(quinolin-8-yl)azetidine-2-carboxamide]
2 | 65.75% | C=CC(=O)N1C[C@H](c2ccc(Br)cc2)[C@@H]1C(=O)Nc1cccc2cccnc12 [MY-1B, (2R,3S)-1-acryloyl-3-(4-bromophenyl)-N-(quinolin-8-yl)azetidine-2-carboxamide]
3 | 69.25% | C=CC(=O)N1C[C@H](c2ccc(Br)cc2)[C@H]1C(=O)Nc1cccc2cccnc12 [MY-3B, (2S,3S)-1-acryloyl-3-(4-bromophenyl)-N-(quinolin-8-yl)azetidine-2-carboxamide]
4 | 44.75% | C=CC(=O)N1C[C@H](c2ccc(Br)cc2)[C@H]1C(=O)Nc1cccc2cccnc12 [MY-3A, (2S,3S)-1-acryloyl-3-(4-bromophenyl)-N-(quinolin-8-yl)azetidine-2-carboxamide]
